Experiments:
[1] = system: SMN2 minigene mRNA (SMN2-A minigene) in HEK293H cells; experiment: SMN2 minigene mRNA splicing RT-qPCR assay in cultured cells; type: cell-based, human; details: Homo sapiens, HEK293-H; concentration increasing full length SMN2 mRNA 1.5-fold relative to vehicle-treated cells; HEK293H cells with SMN2-A minigene, 24 hours, 7-point concentration data; read-out: EC1.5x for production of full length SMN2 mRNA
Procedure, shortened: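 EC1.5× values derive from a 24 h treatment of SMN2-A minigene HEK293H cells and GAPDH-normalized RT-qPCR of exon 7-included minigene mRNA relative to vehicle-treated cells.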

[2] = system: Smn protein in SMA patient fibroblast cells (GM03813); experiment: Smn protein assay in cultured cells (SMN HTRF); type: cell-based, human; details: SMA patient fibroblast cells, 48 hours; for EC1.5x for Smn protein expression: 7-point concentration curve, SMN HTRF, concentration producing 1.5 times Smn protein vs DMSO vehicle control; for maximum fold (Fold) increase of Smn protein: 7-point concentration data, fold relative to vehicle control
Procedure, shortened: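 Cells were cultured 72 h, seeded at 5,000/well and dosed with seven concentrations (3.16-fold apart) for 48 h. HTRF on lysates, read at 665 and 620 nm, gave blank-corrected ΔF values relative to DMSO. Potency is reported as EC1.5×, efficacy as maximal fold Smn increase.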

melting point	Structure (SMILES)	EC (1.5-fold increase) [1]	EC1.5x for Smn protein expression [2]	maximum fold (Fold) increase of Smn protein [2]
236 to 239 °C	Cc1cn2cc(-c3cc(=O)n4cc(N5CCN[C@@H](C)C5)ccc4n3)cc(Cl)c2n1 [Compound 291, 2-(8-chloro-2-methylimidazo[1,2-a]pyridin-6-yl)-7-[(3S)-3-methylpiperazin-1-yl]-4H-pyrido[1,2-a]pyrimidin-4-one]	< 0.1 µM	**** (an EC1.5x≤0.3 μM is indicated by four stars (****))	***** (a fold increase >1.65 is indicated by five stars (*****))
274 to 280 °C	Cc1cn2cc(-c3cc(=O)n4cc(N5CCN6CCC[C@@H]6C5)ccc4n3)cc(Cl)c2n1 [Compound 292, 2-(8-chloro-2-methylimidazo[1,2-a]pyridin-6-yl)-7-[(8aR)-hexahydropyrrolo[1,2-a]pyrazin-2(1H)-yl]-4H-pyrido[1,2-a]pyrimidin-4-one]	< 0.1 µM	**** (an EC1.5x≤0.3 μM is indicated by four stars (****))	**** (a fold increase between >1.5 and ≤1.65 is indicated by four stars (****))
269 to 275 °C	Cc1cn2cc(-c3cc(=O)n4cc(N5CCN6CCC[C@H]6C5)ccc4n3)cc(Cl)c2n1 [Compound 293, 2-(8-chloro-2-methylimidazo[1,2-a]pyridin-6-yl)-7-[(8aS)-hexahydropyrrolo[1,2-a]pyrazin-2(1H)-yl]-4H-pyrido[1,2-a]pyrimidin-4-one]	< 0.1 µM	**** (an EC1.5x≤0.3 μM is indicated by four stars (****))	***** (a fold increase >1.65 is indicated by five stars (*****))
269 to 275 °C	Cc1cn2cc(-c3cc(=O)n4cc(N5CCN(C)[C@@H](C)C5)ccc4n3)cc(F)c2n1 [Compound 295, 7-[(3S)-3,4-dimethylpiperazin-1-yl]-2-(8-fluoro-2-methylimidazo[1,2-a]pyridin-6-yl)-4H-pyrido[1,2-a]pyrimidin-4-one]	< 0.1 µM	**** (an EC1.5x≤0.3 μM is indicated by four stars (****))	**** (a fold increase between >1.5 and ≤1.65 is indicated by four stars (****))
279 to 282 °C	Cc1cn2cc(-c3cc(=O)n4cc(N5CCN(C)[C@H](C)C5)ccc4n3)cc(F)c2n1 [Compound 296, 7-[(3R)-3,4-dimethylpiperazin-1-yl]-2-(8-fluoro-2-methylimidazo[1,2-a]pyridin-6-yl)-4H-pyrido[1,2-a]pyrimidin-4-one]	< 0.1 µM	**** (an EC1.5x≤0.3 μM is indicated by four stars (****))	***** (a fold increase >1.65 is indicated by five stars (*****))
250 to 257 °C	Cc1cn2cc(-c3cc(=O)n4cc(N5CCC(N(C)C)CC5)ccc4n3)cc(F)c2n1 [Compound 297, 7-[4-(dimethylamino)piperidin-1-yl]-2-(8-fluoro-2-methylimidazo[1,2-a]pyridin-6-yl)-4H-pyrido[1,2-a]pyrimidin-4-one]	< 0.1 µM	**** (an EC1.5x≤0.3 μM is indicated by four stars (****))	***** (a fold increase >1.65 is indicated by five stars (*****))
157 to 160 °C	COc1ccc(-c2ccc3nc(N4CCC(N(C)C)CC4)cc(=O)n3c2)cc1F [Compound 298, 2-[4-(dimethylamino)piperidin-1-yl]-7-(3-fluoro-4-methoxyphenyl)-4H-pyrido[1,2-a]pyrimidin-4-one]	0.3 to 1 µM		*** (a fold increase between >1.35 and ≤1.5 is indicated by three stars (***))
194 to 201 °C	COc1ccc(-c2cc(=O)n3cc(N4C[C@H]5CCCN[C@H]5C4)ccc3n2)cc1F [Compound 301, 2-(3-fluoro-4-methoxyphenyl)-7-[(4aR,7aR)-octahydro-6H-pyrrolo[3,4-b]pyridin-6-yl]-4H-pyrido[1,2-a]pyrimidin-4-one]	1 to 3 µM		* (A maximum fold increase of ≤1.2 is indicated by one star (*))
184 to 186 °C	Cc1nc2c(F)cc(-c3cc(=O)n4cc(N5CCNCC5)ccc4n3)cc2o1 [Compound 305, 2-(4-fluoro-2-methyl-1,3-benzoxazol-6-yl)-7-(piperazin-1-yl)-4H-pyrido[1,2-a]pyrimidin-4-one]	< 0.1 µM	**** (an EC1.5x≤0.3 μM is indicated by four stars (****))	***** (a fold increase >1.65 is indicated by five stars (*****))
194 to 196 °C	Cc1nc2c(F)cc(-c3cc(=O)n4cc(N5CCN(C)[C@@H](C)C5)ccc4n3)cc2o1 [Compound 307, 7-[(3S)-3,4-dimethylpiperazin-1-yl]-2-(4-fluoro-2-methyl-1,3-benzoxazol-6-yl)-4H-pyrido[1,2-a]pyrimidin-4-one]	< 0.1 µM	**** (an EC1.5x≤0.3 μM is indicated by four stars (****))	**** (a fold increase between >1.5 and ≤1.65 is indicated by four stars (****))
212 to 214 °C	CCN1CCN(c2ccc3nc(-c4cc(F)c5nc(C)oc5c4)cc(=O)n3c2)CC1 [Compound 309, 7-(4-ethylpiperazin-1-yl)-2-(4-fluoro-2-methyl-1,3-benzoxazol-6-yl)-4H-pyrido[1,2-a]pyrimidin-4-one]	< 0.1 µM	**** (an EC1.5x≤0.3 μM is indicated by four stars (****))	**** (a fold increase between >1.5 and ≤1.65 is indicated by four stars (****))
175 to 178 °C	CCCN1CCN(c2ccc3nc(-c4cc(F)c5nc(C)oc5c4)cc(=O)n3c2)CC1 [Compound 310, 2-(4-fluoro-2-methyl-1,3-benzoxazol-6-yl)-7-(4-propylpiperazin-1-yl)-4H-pyrido[1,2-a]pyrimidin-4-one]	< 0.1 µM	*** (an EC1.5× between >0.3 μM and ≤1 μM is indicated by three stars (***))	*** (a fold increase between >1.35 and ≤1.5 is indicated by three stars (***))
157 to 167 °C	CCN1C[C@@H]2CN(c3ccc4nc(-c5ccc(OC)c(F)c5)cc(=O)n4c3)C[C@@H]2C1 [Compound 311, 7-[(3aR,6aS)-5-ethylhexahydropyrrolo[3,4-c]pyrrol-2(1H)-yl]-2-(3-fluoro-4-methoxyphenyl)-4H-pyrido[1,2-a]pyrimidin-4-one]	0.1 to 0.3 µM		** (a fold increase between >1.2 and ≤1.35 is indicated by two stars (**))

Structure (SMILES)	melting point	EC (1.5-fold increase) [1]	EC1.5x for Smn protein expression [2]	maximum fold (Fold) increase of Smn protein [2]
Cc1nc2c(F)cc(-c3cc(=O)n4cc(C5=CCNCC5)ccc4n3)cc2o1 [Compound 299, 2-(4-fluoro-2-methyl-1,3-benzoxazol-6-yl)-7-(1,2,3,6-tetrahydropyridin-4-yl)-4H-pyrido[1,2-a]pyrimidin-4-one]	177 to 180 °C	< 0.1 µM	**** (an EC1.5x≤0.3 μM is indicated by four stars (****))	***** (a fold increase >1.65 is indicated by five stars (*****))
Cc1nc2c(F)cc(-c3cc(=O)n4cc(C5=CCN(C)CC5)ccc4n3)cc2o1 [Compound 300, 2-(4-fluoro-2-methyl-1,3-benzoxazol-6-yl)-7-(1-methyl-1,2,3,6-tetrahydropyridin-4-yl)-4H-pyrido[1,2-a]pyrimidin-4-one]	178 to 181 °C	< 0.1 µM	**** (an EC1.5x≤0.3 μM is indicated by four stars (****))	***** (a fold increase >1.65 is indicated by five stars (*****))
Cc1nc2ccc(-c3cc(=O)n4cc(C5=CCN(C)CC5)ccc4n3)cc2o1 [Compound 303, 2-(2-methyl-1,3-benzoxazol-6-yl)-7-(1-methyl-1,2,3,6-tetrahydropyridin-4-yl)-4H-pyrido[1,2-a]pyrimidin-4-one]	132 to 135 °C	< 0.1 µM	**** (an EC1.5x≤0.3 μM is indicated by four stars (****))	**** (a fold increase between >1.5 and ≤1.65 is indicated by four stars (****))
CCN1CC=C(c2ccc3nc(-c4ccc5nc(C)oc5c4)cc(=O)n3c2)CC1 [Compound 304, 7-(1-ethyl-1,2,3,6-tetrahydropyridin-4-yl)-2-(2-methyl-1,3-benzoxazol-6-yl)-4H-pyrido[1,2-a]pyrimidin-4-one]	128 to 131 °C	< 0.1 µM	**** (an EC1.5x≤0.3 μM is indicated by four stars (****))	***** (a fold increase >1.65 is indicated by five stars (*****))
COc1ccc(-c2cc(=O)n3cc(C4=CCNCC4)cc(C)c3n2)cc1F [Compound 312, 2-(3-fluoro-4-methoxyphenyl)-9-methyl-7-(1,2,3,6-tetrahydropyridin-4-yl)-4H-pyrido[1,2-a]pyrimidin-4-one]	211 to 215 °C	< 0.1 µM	**** (an EC1.5x≤0.3 μM is indicated by four stars (****))	**** (a fold increase between >1.5 and ≤1.65 is indicated by four stars (****))

— patent US11753407B2, “Compounds for treating spinal muscular atrophy” (PTC Therapeutics, Inc., priority 2012, dated 2023)
